From ChEMBL document CHEMBL3046147, “Synthesis and Herbicidal Activity of 1-Arylalkyl-3-pyrrolin-2-one Derivatives” (J Pestic Sci, 2000)

Columns and labels:
[1] = test system: Schoenoplectiella juncoides; test: Herbicide activity against Schoenoplectiella juncoides under greenhouse condition compound treated at emergence-stage measured after 14 to 20 days; format: functional
Echinochloa oryzicola [2] = test: Herbicide activity against Echinochloa oryzicola under greenhouse condition compound treated at 2 leaf-stage measured after 14 to 20 days; format: functional
Oryza sativa [3] = test: Phytotoxicity against two-leaf stage Oryza sativa cv. Nihonbare (rice) planted 1 cm depth measured after […]; format: organism-based; conditions: in vivo
Sagittaria pygmaea = test: Herbicide activity against Sagittaria pygmaea under greenhouse condition compound treated at 0.5 leaf-stage measured after 14 to 20 days; format: functional
Oryza sativa [4] = test: Phytotoxicity against two-leaf stage Oryza sativa cv. Nihonbare (rice) planted 3 cm depth measured after […]; format: organism-based; conditions: in vivo
Echinochloa oryzicola [5] = test: Pre-emergence herbicide activity against Echinochloa oryzicola under greenhouse condition measured after 14 to 20 days; format: functional

Structure (SMILES) | MED [1] [g/acre] | MED (Echinochloa oryzicola [2]) [g/acre] | MTD (Oryza sativa [3]) [g/acre] | MED (Sagittaria pygmaea) [g/acre] | MTD (Oryza sativa [4]) [g/acre] | MED (Echinochloa oryzicola [5]) [g/acre]
CC(C)(c1nc2ccccc2s1)N1CC(C(F)(F)F)=C(c2ccccc2)C1=O | 80 | <5 | 5 | 40 | 10 | 1.25
CC1=C(c2ccccc2Cl)C(=O)N(C(C)(C)c2nc3ccccc3s2)C1 | 10 | 2.5 | 1.25 | 10 | 2.5 | 2.5
CC1=C(c2ccccc2)C(=O)N(C(C)(C)c2cc3ccccc3s2)C1 | 80 | 5 | 10 | 160 | 20 | 0.313
CC1=C(c2cccc(C(F)(F)F)c2)C(=O)N(C(C)(C)c2nc3ccccc3s2)C1 | 160 | <5 | 20 | 160 | 20 | 80
COc1ccc(C2=C(C)CN(C(C)(C)c3nc4ccccc4s3)C2=O)cc1OC | 160 | <5 | 80 | 160 | 80 | 160
CC1=C(c2ccccc2C(=O)O)C(=O)N(C(C)(C)c2nc3ccccc3s2)C1 | 160 | <5 | 40 | 160 | 20 | 160
CC1=C(c2ccccc2O)C(=O)N(C(C)(C)c2nc3ccccc3s2)C1 | 2.5 | <5 | 20 | 80 | 5 | 10
CC1=C(c2ccccc2)C(=O)N(C(C)(C)c2ccsc2)C1 | 5 | <10 | 20 | 20 | 40 | 5
CC1=C(c2ccccc2)C(=O)N(C(C)(C)c2nc3ccc(I)cc3s2)C1 | 20 | <5 | 20 | 20 | 10 | 5
CC1=C(c2ccccc2)C(=O)N(C(C)(C)c2ccc(Cl)s2)C1 | 10 | 10 | 10 | 80 | 20 | 0.625
CC1=C(c2cccnc2)C(=O)N(C(C)(C)c2nc3ccccc3s2)C1 | 2.5 | <5 | 5 | <5 | 10 | 2.5
CC(=O)OC1=C(c2ccccc2)C(=O)N(C(C)(C)c2nc3ccccc3s2)C1 | 80 | <5 | < 20 | 80 | < 20 | 80
COc1ccc2nc(C(C)(C)N3CC(C)=C(c4ccccc4)C3=O)sc2c1 | 20 | 2.5 | > 5 | 40 | 10 | 0.313
CC(C)(c1nc2ccccc2s1)N1CC=C(c2ccccc2)C1=O | 5 | 5 | 2.5 | 10 | < 20 | 0.625
CC1=C(c2ccccc2)C(=O)N(C(C)(C)c2ccccn2)C1 | 40 | – | – | 80 | – | 20
CC1=C(c2ccccc2Br)C(=O)N(C(C)(C)c2nc3ccccc3s2)C1 | 20 | <5 | > 5 | 40 | 5 | 2.5
CC1=C(c2ccccc2)C(=O)N(C(C)(C)c2nc3ccccc3o2)C1 | 2.5 | 5 | 5 | 10 | 20 | 0.625
CC1=C(c2ccccc2C#N)C(=O)N(C(C)(C)c2nc3ccccc3s2)C1 | 5 | <5 | > 5 | 40 | 5 | 10
CC1=C(c2ccccc2)C(=O)N(C(C)(C)c2nc3ccc(F)cc3s2)C1 | 40 | <5 | 5 | 40 | 20 | 5

Structure (SMILES) | MED [1] [g/acre] | MED (Echinochloa oryzicola [2]) [g/acre] | MTD (Oryza sativa [3]) [g/acre] | MED (Sagittaria pygmaea) [g/acre] | MTD (Oryza sativa [4]) [g/acre] | MED (Echinochloa oryzicola [5]) [g/acre]
CC1=C(c2ccc(F)cc2)C(=O)N(C(C)(C)c2nc3ccccc3s2)C1 | 20 | 5 | > 5 | 20 | 20 | 5
COc1ccccc1C1=C(C)CN(C(C)(C)c2nc3ccccc3s2)C1=O | 5 | <5 | > 5 | 5 | 5 | 5
CC1=C(c2ccccc2)C(=O)N(C(C)(C)c2nc3cc(C#N)ccc3s2)C1 | 20 | <5 | 40 | 40 | 10 | 5
CC1=C(c2ccccc2)C(=O)N(C(C)(C)c2nc3c(Cl)cccc3s2)C1 | 80 | 5 | > 5 | 80 | 10 | 1.25
CC1=C(/C=C/c2ccccc2)C(=O)N(C(C)(C)c2nc3ccccc3s2)C1 | 80 | <5 | 80 | 80 | 80 | 160
CC1=C(c2ccc(Cl)cc2)C(=O)N(C(C)(C)c2nc3ccccc3s2)C1 | 160 | <5 | 20 | 160 | 40 | 80
CC1=C(c2ccccc2)C(=O)N(C(C)(C)c2nc3cc(C(=O)O)ccc3s2)C1 | 80 | <5 | 10 | 80 | 20 | 80
CC1=C(c2ccccc2)C(=O)N(C(C)(C)c2ncc(-c3ccc(Cl)cc3)s2)C1 | 160 | <5 | 80 | 160 | 80 | 40
CC1=C(c2ccc(-c3ccccc3)cc2)C(=O)N(C(C)(C)c2nc3ccccc3s2)C1 | 160 | <5 | 80 | 160 | 80 | <10
CC1=C(c2ccccc2)C(=O)N(C(C)(C)c2nc3cccnc3s2)C1 | 2.5 | 2.5 | > 0.313 | 5 | 0.313 | 0.313
CC1=C(c2ccccc2)C(=O)N(C(C)(C)c2nc3cc(Cl)ccc3s2)C1 | 40 | <5 | 10 | 80 | 40 | 0.625
CC1=C(Oc2ccc(Cl)cc2)C(=O)N(C(C)(C)c2nc3ccccc3s2)C1 | 160 | <5 | 40 | 160 | 40 | 80
CC1=C(c2ccccc2)C(=O)N(C(C)(C)c2nc3cccc(Cl)c3s2)C1 | 40 | <5 | 10 | 80 | 20 | 0.156
CC1=C(c2cccc(F)c2)C(=O)N(C(C)(C)c2nc3ccccc3s2)C1 | 40 | 5 | 5 | 40 | 20 | 5
COc1ccc(OC)c(C2=C(C)CN(C(C)(C)c3nc4ccccc4s3)C2=O)c1 | 160 | <5 | 10 | 160 | 20 | 80
CC1=C(c2ccccc2)C(=O)N(C(C)(C)c2csc(-c3ccccc3)n2)C1 | 40 | <5 | 40 | 40 | 40 | 40
CC1=C(c2cccc3ccccc23)C(=O)N(C(C)(C)c2nc3ccccc3s2)C1 | 80 | – | 80 | 80 | 80 | 80
CC1=C(Oc2ccccc2)C(=O)N(C(C)(C)c2nc3ccccc3s2)C1 | 80 | – | 40 | 40 | 40 | 80
CC1=C(c2ccccc2)C(=O)N(C(C)(C)c2nc3cc(Br)ccc3s2)C1 | 160 | – | 80 | 160 | 80 | 20
